Details: Liquid, Vibrating tube method

CC[n+]1ccccc1C.O=S(=O)([N-]S(=O)(=O)C(F)(F)F)C(F)(F)F
Details | mass density [kg/m3]
283.15 K, 100 kPa | 1520.3
283.15 K, 2500 kPa | 1522.2
283.15 K, 5000 kPa | 1523.8
283.15 K, 7500 kPa | 1525.4
283.15 K, 10000 kPa | 1527
283.15 K, 15000 kPa | 1530.1
283.15 K, 20000 kPa | 1533.1
283.15 K, 25000 kPa | 1536
283.15 K, 30000 kPa | 1538.8
283.15 K, 35000 kPa | 1541.6
283.15 K, 45000 kPa | 1546.9
283.15 K, 55000 kPa | 1551.8
283.15 K, 65000 kPa | 1556.4
288.15 K, 100 kPa | 1515.4
288.15 K, 2500 kPa | 1517.2
288.15 K, 5000 kPa | 1518.9
288.15 K, 7500 kPa | 1520.6
288.15 K, 10000 kPa | 1522.2
288.15 K, 15000 kPa | 1525.3
288.15 K, 20000 kPa | 1528.3
288.15 K, 25000 kPa | 1531.3
288.15 K, 30000 kPa | 1534.2
288.15 K, 35000 kPa | 1536.9
288.15 K, 45000 kPa | 1542.2
288.15 K, 55000 kPa | 1547.3
288.15 K, 65000 kPa | 1552
293.15 K, 100 kPa | 1510.5
293.15 K, 2500 kPa | 1512.4
293.15 K, 5000 kPa | 1514.1
293.15 K, 7500 kPa | 1515.7
293.15 K, 10000 kPa | 1517.4
293.15 K, 15000 kPa | 1520.6
293.15 K, 20000 kPa | 1523.6
293.15 K, 25000 kPa | 1526.6
293.15 K, 30000 kPa | 1529.5
293.15 K, 35000 kPa | 1532.4
293.15 K, 45000 kPa | 1537.8
293.15 K, 55000 kPa | 1542.9
293.15 K, 65000 kPa | 1547.7
298.15 K, 100 kPa | 1505.6
298.15 K, 2500 kPa | 1507.5
298.15 K, 5000 kPa | 1509.2
298.15 K, 7500 kPa | 1510.9
298.15 K, 10000 kPa | 1512.5
298.15 K, 15000 kPa | 1515.8
298.15 K, 20000 kPa | 1519
298.15 K, 25000 kPa | 1522
298.15 K, 30000 kPa | 1525
298.15 K, 35000 kPa | 1527.8
298.15 K, 45000 kPa | 1533.3
298.15 K, 55000 kPa | 1538.5
298.15 K, 65000 kPa | 1543.4
303.15 K, 100 kPa | 1500.8
303.15 K, 2500 kPa | 1502.7
303.15 K, 5000 kPa | 1504.5
303.15 K, 7500 kPa | 1506.2
303.15 K, 10000 kPa | 1507.9
303.15 K, 15000 kPa | 1511.2
303.15 K, 20000 kPa | 1514.3
303.15 K, 25000 kPa | 1517.5
303.15 K, 30000 kPa | 1520.5
303.15 K, 35000 kPa | 1523.4
303.15 K, 45000 kPa | 1528.9
303.15 K, 55000 kPa | 1534.2
303.15 K, 65000 kPa | 1539.2
308.15 K, 100 kPa | 1495.9
308.15 K, 2500 kPa | 1497.9
308.15 K, 5000 kPa | 1499.7
308.15 K, 7500 kPa | 1501.4
308.15 K, 10000 kPa | 1503.1
308.15 K, 15000 kPa | 1506.5
308.15 K, 20000 kPa | 1509.7
308.15 K, 25000 kPa | 1512.9
308.15 K, 30000 kPa | 1515.9
308.15 K, 35000 kPa | 1518.9
308.15 K, 45000 kPa | 1524.5
308.15 K, 55000 kPa | 1529.9
308.15 K, 65000 kPa | 1534.9
313.15 K, 100 kPa | 1491.1
313.15 K, 2500 kPa | 1493.2
313.15 K, 5000 kPa | 1495
313.15 K, 7500 kPa | 1496.8
313.15 K, 10000 kPa | 1498.5
313.15 K, 15000 kPa | 1502
313.15 K, 20000 kPa | 1505.2
313.15 K, 25000 kPa | 1508.4
313.15 K, 30000 kPa | 1511.5
313.15 K, 35000 kPa | 1514.5
313.15 K, 45000 kPa | 1520.3
313.15 K, 55000 kPa | 1525.7
313.15 K, 65000 kPa | 1530.8
318.15 K, 100 kPa | 1486.3
318.15 K, 2500 kPa | 1488.4
318.15 K, 5000 kPa | 1490.3
318.15 K, 7500 kPa | 1492.1
318.15 K, 10000 kPa | 1493.8
318.15 K, 15000 kPa | 1497.3
318.15 K, 20000 kPa | 1500.6
318.15 K, 25000 kPa | 1503.9
318.15 K, 30000 kPa | 1507
318.15 K, 35000 kPa | 1510.1
318.15 K, 45000 kPa | 1515.9
318.15 K, 55000 kPa | 1521.4
318.15 K, 65000 kPa | 1526.6
323.15 K, 100 kPa | 1481.5
323.15 K, 2500 kPa | 1483.7
323.15 K, 5000 kPa | 1485.6
323.15 K, 7500 kPa | 1487.4
323.15 K, 10000 kPa | 1489.2
323.15 K, 15000 kPa | 1492.7
323.15 K, 20000 kPa | 1496.2
323.15 K, 25000 kPa | 1499.5
323.15 K, 30000 kPa | 1502.6
323.15 K, 35000 kPa | 1505.7
323.15 K, 45000 kPa | 1511.7
323.15 K, 55000 kPa | 1517.3
323.15 K, 65000 kPa | 1522.5
328.15 K, 100 kPa | 1476.8
328.15 K, 2500 kPa | 1478.9
328.15 K, 5000 kPa | 1480.8
328.15 K, 7500 kPa | 1482.7
328.15 K, 10000 kPa | 1484.5
328.15 K, 15000 kPa | 1488.1
328.15 K, 20000 kPa | 1491.6
328.15 K, 25000 kPa | 1494.9
328.15 K, 30000 kPa | 1498.2
328.15 K, 35000 kPa | 1501.4
328.15 K, 45000 kPa | 1507.4
328.15 K, 55000 kPa | 1513
328.15 K, 65000 kPa | 1518.4
333.15 K, 100 kPa | 1472
333.15 K, 2500 kPa | 1474.3
333.15 K, 5000 kPa | 1476.2
333.15 K, 7500 kPa | 1478.1
333.15 K, 10000 kPa | 1480
333.15 K, 15000 kPa | 1483.6
333.15 K, 20000 kPa | 1487.2
333.15 K, 25000 kPa | 1490.5
333.15 K, 30000 kPa | 1493.9
333.15 K, 35000 kPa | 1497
333.15 K, 45000 kPa | 1503.2
333.15 K, 55000 kPa | 1509
333.15 K, 65000 kPa | 1514.3

From the NIST ThermoML archive (doi:10.1016/j.fluid.2014.08.018)
